One block for each molecule: values may come before it.
Legend:
[1] = system: Pin1 and SIRT1 interaction; experiment: Pin1 and SIRT1 interaction by Co-IP and co-immunostaining; type: cell-based; settings: Co-IP (FIG. 1 K) and co-immunostaining (FIG. 1 L)
Description: Out of the seven Sirtuin family members, SIRT1, 2, 6, and 7 associated with Pin1 as shown by Co-IP and GST pull-down (FIG. 1 F). However, only SIRT1 reduced Pin1 acetylation (FIG. 1 G). Furthermore, overexpression of wild-type (WT), but not its catalytic dead (H363Y) mutant, induced Pin1 deacetylation in cells (FIG. 1 H). […] In addition, since other studies have shown that glucose starvation activates SIRT1 activity, an investigation was made to know whether glucose starvation-induced Pin1 deacetylation is mediated by SIRT1.

Pin1 acetylation = Pin1 acetylation in cells (Co-IP with anti-Flag antibody, immunoblotting with anti-acetyl lysine antibody); type: cell-based
Description: FIG. 1 depicts HTS results for glucose starvation induced Pin1 deacetylation in cells 100. Different stress tests, such as heat shock, ultraviolet radiation, and glucose starvation (Glu^−), may produce an extracellular stimulus that could transform one or more cellular responses related to cell growth, differentiation, activation of transcript factors, glucose metabolism, control of proteins synthesis, and regulation of cell cycle. Among these stresses testes, glucose starvation (Glu^−), may reduce Pin1 acetylation without affecting its protein expression (FIG. 1 A). […] Protein acetylation may be catalytically modulated by a particular pair of histone acetyl transferase (HAT) and histone deacetylase (HDAC) (Yang and Seto, 2007). To identify the HAT and HDAC that modulates Pin1 acetylation, Flag-tagged Pin1 was expressed with several HATs including p300, CBP or GCN5 in cells, followed by co-immunoprecipitation (Co-IP) with anti-Flag antibody and immunoblotting with anti-acetyl lysine antibody. […] Moreover, Pin1 Co-IPed with p300, supporting that p300 is a HAT for Pin1. For the corresponding HDAC, various HDAC inhibitors targeting different HDAC categories were used, including Trichostatin A (TSA) and MS-275 for class I and II HDACs as well as Nicotinamide (NAM) and Splitomicin (Splito) for class III HDACs.

[2] = HDAC inhibitors in cells, FIG. 1 E

- Pin1 binding with SIRT1 [1]: increased binding with SIRT1
Compound: O=CC[C@@H](O)[C@H](O)[C@H](O)CO [2-DG, 2-deoxyglucose]
- effect on Pin1 acetylation (Pin1 acetylation; mimicking glucose starvation, FIG. 1 B): reduction in Pin1 acetylation in a time- or dose-dependent manner

Compound: NC(=O)c1cccnc1 [NAM, Nicotinamide]
- effect on Pin1 acetylation (Pin1 acetylation; [2]): increased Pin1 acetylation

Compound: O=C1CCc2c(ccc3ccccc23)O1 [Splito, Splitomicin]
- effect on Pin1 acetylation (Pin1 acetylation; [2]): increased Pin1 acetylation

Compound: CCCCCCCCCCCCCCCc1cccc(O)c1C(=O)O [Anacardic acid]
- effect on p300-increased Pin1 acetylation (Acetyl-Pin1) (Pin1 acetylation; cells overexpressing p300 with Flag-Pin1, FIG. 1 D): reversed
